Source: publication PMC13222238, “Development of a gut microbiota model for the analysis of bacterial modifications of xenobiotics” (Applied Microbiology and Biotechnology, 2026)

Legend:
[1] = test system: sterile-filtered fecal exoenzyme fraction; assay: Xenobiotic depletion in the sterile-filtered fecal exoenzyme fraction; type: in vitro ADME, human; conditions: anaerobic, 24 h
Method: (§1) To further purify the extracellular enzyme (exoenzyme) fraction, the supernatant was centrifuged at 18,000 × g for 3 min at 4 °C. The resulting preparation was then sterile-filtered three times through 0.22-µm syringe filters to ensure complete removal of remaining microbial cells. The sterile exoenzyme fraction was stored anaerobically at −70 °C until further use. The middle layer, which contained the gut bacteria, was collected and referred to as the bacterial colon model. The isolated microbiota was then diluted in sterile 50% (v/v) glycerol and stored at −70 °C under anaerobic conditions.
(§2) To enable parameter-based comparison of compound conversion across incubation matrices, apparent first-order kinetic parameters were calculated from precursor compound depletion data. Only quantifiable time points were considered. Because these values represent apparent kinetic estimates derived from a limited number of sampling points, they were interpreted primarily for comparative purposes. Detailed experimental conditions and analytical parameters are provided in Supplementary Tab. S2.
(§3) To evaluate the metabolic capabilities of the human colon model presented here, a panel of structurally diverse xenobiotics was selected based on microbial biotransformation reactions reported in the literature (Fig. 7, Supplementary Fig. S2). […] Together, these reference substrates served as model compounds covering major gut microbial transformation chemistries, enabling a matrix-to-matrix performance evaluation of the colon model. […] Product levels were estimated using the nitrendipine calibration and are therefore semi-quantitative.
(§4) Table S1: Composition of the modified SHIME®-based regeneration media.
(§5) To evaluate microbial xenobiotic metabolism under defined conditions, incubations were conducted using model substrates representing major biotransformation classes: 4- […]
(§6) reduction), and nitrendipine (nitro group reduction). Reaction mixtures were prepared under […]
(§7) rich substrate formulation with 1 g L-1 mucin, pectin, and xylan (substrate control), (ii) 150 µL pooled fecal suspension (three individual pools with n = 3 donors each, 1:10 diluted in SHIME® saline) + 60 µL fiber-rich substrate, (iii) 300 µL pooled exoenzyme fraction (three individual pools with n = 3 donors each, 1:10 in SHIME® saline), and (iv) 150 µL bacterial colon model + 60 µL fiber-rich substrate. All incubations contained 500 µM of the respective test compound.
(§8) At defined time points, samples were mixed 1:1 (v/v) with ethanol, vortexed, and centrifuged […]
(§9) (18,000 × g, 3 min). The resulting supernatant was combined 1:1 (v/v) with acetonitrile (100 %) […]
(§10) The clarified supernatant was diluted with the mobile phase prior to injection. Non-polar and UV-absorbing compounds were analyzed on a Knauer Eurospher II C8 column (250 × 4 mm, 5 µm) with a C8 guard cartridge using an AZURA CT 2 system (Knauer, Berlin, Germany) equipped with a SpectraSystem SCM1000 degasser, P4000 pump, AS3000 autosampler, and UVD 2.1L detector. Paracetamol was analyzed on a Shodex Asahipak NH2P-50 3E column (Showa Denko, Japan) with a corresponding guard column and an RI- […]
(§11) Chromatographic parameters, including mobile-phase composition, column temperature, flow rate, and detection wavelength are summarized in Suppl. Tab. S1. Quantification of parent compounds and metabolites was performed by […]

[2] = test system: pooled human fecal slurry; assay: Xenobiotic depletion in pooled human fecal slurry, anaerobic incubation
Method: as §2, §3, §4, §5, §6, §7, §8, §9, §10
(§12) Chromatographic parameters, including mobile-phase composition, column temperature, flow rate, and detection wavelength are summarized in Suppl. Tab. S1. Quantification of parent compounds and metabolites was performed by external calibration using analytical reference standards.
(§13) Table S2: Chromatographic conditions for HPLC-based detection of selected xenobiotics and their microbial transformation products. Analytes were separated on either C8 or amino columns under compound-specific conditions. Mobile phases consisted of acetonitrile (ACN) with acidic modifiers and were operated under isocratic flow. Detection wavelengths correspond to the absorbance maxima […]
(§14) Column Mobile phase Tempera Flow rate UV detection […]

[3] = Xenobiotic depletion in buffer (SHIME saline with fiber-rich substrate, substrate control)
Method: as §2, §4, §5
as §7, with “reduction), and nitrendipine (nitro group reduction). Reaction mixtures were prepared under anaerobic conditions (37°C, 24 h) as follows: (i) 210 µL SHIME® saline containing the fiber-rich substrate formulation” for “rich substrate formulation”
as §8, §9
The clarified supernatant was diluted with the mobile phase prior to injection. Non-polar and UV-absorbing compounds were analyzed on a Knauer Eurospher II C8 column (250 × 4 mm, 5 µm) with a C8 guard cartridge using an AZURA CT 2 system (Knauer, Berlin, Germany) equipped with a SpectraSystem SCM1000 degasser, P4000 pump, AS3000 autosampler, and UVD 2.1L detector. Paracetamol was analyzed on a Shodex Asahipak NH2P-50 3E column (Showa Denko, Japan) with a corresponding guard column and an RI-101 detector (Ercatech AG, Germany). Chromatographic parameters, including mobile-phase composition, column temperature, flow rate, and detection wavelength are summarized in Suppl. Tab. […]. Quantification of parent compounds and metabolites was performed by external calibration using analytical reference standards.
as §13, §14
To confirm the identity of selected biotransformation products, representative samples were analyzed by liquid chromatography-mass spectrometry (LC-MS). Samples were mixed 1:1 (v/v) with ethanol and centrifuged (18,000 × g, 5 min). From the resulting supernatant, 50 µL were diluted in 450 µL H₂O: ACN (70:30, v/v). Prior to analysis, samples were filtered through

bacterial colon model = assay: in vitro; conditions: for apparent first-order rate constant (k): 500 µM
Method: (§15) Our model was based on the isolation of intact bacterial communities from human feces. Bacterial isolation was performed using a modified density gradient centrifugation protocol first described by Hevia et al. ([2015]). To detach bacteria adhering to particulate matter and embedded within fecal biofilms, 0.001% (w/v) cetyltrimethylammonium bromide (CTAB) was added to each diluted fecal sample 30 min prior to further processing (Macfarlane et al. [1997]). All steps involving open sample handling were conducted under strictly anaerobic conditions (79% N2, 19% CO2, 2% H2) within a vinyl anaerobic chamber (Coy Laboratory Products, Grass Lake, Michigan, USA). Samples from three donors were randomly pooled for each preparation to reduce variability among individuals. From each pooled and diluted fecal suspension, 15 mL were layered onto 3.5 mL of 55% (w/v) Nycodenz® (Serumwerk Bernburg AG, Bernburg, Germany) in anaerobic centrifuge tubes. The samples were then centrifuged at 4000 × g for 30 min at room temperature.
(§16) To further purify the extracellular enzyme (exoenzyme) fraction, the supernatant was centrifuged at 18,000 × g for 3 min at 4 °C. The resulting preparation was then sterile-filtered three times through 0.22-µm syringe filters to ensure complete removal of remaining microbial cells. The sterile exoenzyme fraction was stored anaerobically at −70 °C until further use. The middle layer, which contained the gut bacteria, was collected and referred to as the bacterial colon model. The isolated microbiota was then diluted in sterile 50% (v/v) glycerol and stored at −70 °C under anaerobic conditions. Prior to use in experiments, the cryopreserved cells were washed three times with modified SHIME® saline (18,000 × g, 3 min, 4 °C) to remove any remaining Nycodenz®, glycerol, and particulate material. The final cell suspension was adjusted to an optical density at 600 nm (OD600) of 10, corresponding to approximately 1.43 × 10^10 cells mL^−1, as determined microscopically using a Neubauer counting chamber (Hager et al. [2025]). This microbial density was about 16% of the mean in vivo bacterial concentration in the human colon, estimated at 8.8 × 10^10 cells mL^−1 (assuming a fecal density of 1.04 g mL^−1 (Sender et al. [2016])).
as §2
(§17) To evaluate the metabolic capabilities of the human colon model presented here, a panel of structurally diverse xenobiotics was selected based on microbial biotransformation reactions reported in the literature (Fig. 7, Supplementary Fig. S2). […] Together, these reference substrates served as model compounds covering major gut microbial transformation chemistries, enabling a matrix-to-matrix performance evaluation of the colon model. All compounds were incubated anaerobically for 24 h with pooled human fecal slurry, the bacterial colon model, and the sterile-filtered fecal exoenzyme fraction, derived from three independent donor pools (n = 3 each).

[4] = Xenobiotic depletion in the sterile-filtered fecal exoenzyme fraction; type: in vitro ADME, human; conditions: human, sterile-filtered fecal exoenzyme fraction (cell-free), 500 µM test compound, anaerobic, 37°C, 24 h, three donor pools, read-out: half-life (t1/2) (converted)
Method: as §1, §2, §3, §4, §5, §6, §7, §8, §9, §10, §11

in vitro = conditions: human
Method: as §2, §3, §4, §5, §6, §7, §8, §9, §10, §12, §13, §14

[5] = Xenobiotic depletion in the bacterial colon model, anaerobic incubation; conditions: human
Method: as §15, §16, §2, §17

[6] = 500 µM test compound, 37°C, three donor pools
[7] = fecal slurry, 500 µM test compound, anaerobic, 37°C, 24 h, three donor pools
[8] = buffer, 500 µM test compound, anaerobic, 37°C, 24 h

SMILES | apparent first-order rate constant (k) [1, 6] [h⁻¹] | conversion in the exoenzyme fraction (in words) [1] | half-life at 500 µM [4] [h] | apparent first-order rate constant (k) ([2]; human, 500 µM) [h⁻¹] | half-life at 500 µM (in vitro) [h] | half-life at 500 µM ([3]; buffer) [h] | half-life at 500 µM [5] [h] | apparent first-order rate constant (k) (bacterial colon model; human) [h⁻¹] | apparent first-order rate constant (k) ([3]; 500 µM) [h⁻¹] | half-life (t1/2) [1, 6] [min] | conversion in the exoenzyme fraction (in words) ([1]; listed as 4-acetoxyacetanilide) | conversion in fecal slurry (in words) ([2]; fecal slurry, anaerobic, 24 h) | apparent first-order rate constant (k) [2, 7] [h⁻¹] | half-life (t1/2) [2, 7] [min] | apparent first-order rate constant (k) [3, 8] [h⁻¹] | half-life (t1/2) [3, 8] [h] | conversion in the bacterial colon model (in words) (bacterial colon model) | half-life (t1/2) (bacterial colon model; human) [min]
CC(=O)Nc1ccc(OC(C)=O)cc1 [4-Acetoxyacetanilide, 4-acetoxyacetanilide] | 13.46 | clear hydrolytic activity | – | – | – | – | – | – | – | 3 | relevant activity | rapidly degraded | 15.38 | 3 | 0.02 | > 24 | rapidly degraded | 1.8
O=C(N[C@H](CO)[C@H](O)c1ccc([N+](=O)[O-])cc1)C(Cl)Cl [Chloramphenicol, chloramphenicol] | 0.003 | – | > 24 | 0.45 | 1.54 | > 24 | 1.47 | 0.47 | – | – | – | – | – | – | – | – | – | –
CC1=C(CC(=O)O)c2cc(F)ccc2/C1=C\c1ccc([S+](C)[O-])cc1 (centres unmarked) [Sulindac, sulindac] | 0.003 | no meaningful conversion | > 24 | 0.12 | 5.78 | > 24 | 3.47 | 0.20 | 0.0003 | – | – | – | – | – | – | – | – | –

Continued, in another order:

apparent first-order rate constant (k) [1, 6] [h⁻¹] | conversion in the exoenzyme fraction (in words) [1] | half-life at 500 µM [4] [h] | apparent first-order rate constant (k) ([2]; human, 500 µM) [h⁻¹] | half-life at 500 µM (in vitro) [h] | half-life at 500 µM ([3]; buffer) [h] | half-life at 500 µM [5] [h] | apparent first-order rate constant (k) (bacterial colon model; human) [h⁻¹] | apparent first-order rate constant (k) ([3]; 500 µM) [h⁻¹] | SMILES | half-life (t1/2) [1, 6] [min] | conversion in the exoenzyme fraction (in words) ([1]; listed as 4-acetoxyacetanilide) | conversion in fecal slurry (in words) ([2]; fecal slurry, anaerobic, 24 h) | apparent first-order rate constant (k) [2, 7] [h⁻¹] | half-life (t1/2) [2, 7] [min] | apparent first-order rate constant (k) [3, 8] [h⁻¹] | half-life (t1/2) [3, 8] [h] | conversion in the bacterial colon model (in words) (bacterial colon model) | half-life (t1/2) (bacterial colon model; human) [min]
0.16 | – | 4.33 | 1.16 | 0.6 | > 24 | 0.61 | 1.13 | 0.005 | CC(=O)OCC(=O)NCCCOc1cccc(CN2CCCCC2)c1 [Roxatidine-acetate, roxatidine-acetate] | – | – | – | – | – | – | – | – | –
0.003 | – | > 24 | 0.93 | – | > 24 | – | 1.20 | 0.002 | O=C(O)c1cc(/N=N/c2ccc(S(=O)(=O)Nc3ccccn3)cc2)ccc1O [Sulfasalazine, sulfasalazine] | – | – | – | – | – | – | – | – | –
0.002 | no relevant conversion | > 24 | 0.44 | 1.58 | > 24 | 0.75 | 0.92 | 0.0009 | CCOC(=O)C1=C(C)NC(C)=C(C(=O)OC)C1c1cccc([N+](=O)[O-])c1 (centres unmarked) [Nitrendipine, nitrendipine] | – | – | – | – | – | – | – | – | –
